Structures are written as SMILES. Where a SMILES comes first, the peptide text is derived from it. [ ]: non-standard residue; d: D form. Aib = CC(C)(N)C(=O)O

The source of these data is paper PMC8163982, “Partial agonism improves the anti-hyperglycaemic efficacy of an oxyntomodulin-derived GLP-1R/GCGR co-agonist” (Molecular Metabolism, 2021).

Data set [1] addresses T1, GCGR (Homo sapiens, UniProt P47871). The data set can be described thus: cAMP accumulation in Huh7-GCGR cells. Format: cell-based. Set-up: expressed in transfected cells; host or cells: Huh7. Conditions: mean ± SEM, n = 6; for Emax: expressed relative to 10 μM forskolin response. Here is the method: (§1) HEK293T cells were maintained in DMEM supplemented with 10% FBS and 1% penicillin/streptomycin. PathHunter CHO–K1-βarr2-EA cells stably expressing human GLP-1R, GCGR, or GIPR and PathHunter CHO–K1-βarr1-EA cells stably expressing GCGR were obtained from DiscoverX and maintained in Ham's F12 medium with 10% FBS and 1% penicillin/streptomycin. Stable HEK293-SNAP-GLP-1R cells were maintained in DMEM supplemented with 10% FBS, 1% penicillin/streptomycin, and 1 mg/ml of G418. INS-1 832/3 cells, a gift from Professor Chris Newgard (Duke University), were maintained in RPMI with 11 mM of glucose supplemented with 10% FBS, 10 mM of HEPES, 1 mM of pyruvate, 50 μM of β-mercaptoethanol, and 1% penicillin/streptomycin. Huh7 cells stably expressing human GCGR (Huh7-GCGR) were maintained in DMEM supplemented with 10% FBS, 1 mg/ml of G418, and 1% penicillin/streptomycin.
(§2) PathHunter cells were stimulated with the indicated concentration of agonist for 30 min at 37 °C in serum-free medium without phosphodiesterase inhibitors. INS-1 832/3 cells were stimulated with the indicated concentration of agonist for 10 min at 37 °C in serum-free medium with 100 μM of 3-isobutyl-1-methylxanthine (IBMX). Primary dispersed mouse islet cells prepared by triturating intact islets in 0.05% trypsin/EDTA for 3 min at 37 °C were stimulated with the indicated concentration of agonist for 5 min at 37 °C in serum-free medium with 11 mM of glucose and 500 μM of IBMX. Primary mouse hepatocytes were stimulated in serum-free medium with 100 μM of IBMX for 10 min or 16 h in serum-free medium with 100 μM of IBMX added for the final 10 min of incubation. Huh7-GCGR cells were stimulated in serum-free medium without phosphodiesterase inhibitors for 10 min or for 16 h in serum-free medium. Where relevant, forskolin (10 μM) was added as a positive or normalisation control. At the end of each incubation, cAMP was then assayed by HTRF (Cisbio cAMP Dynamic 2) and concentration-response curves were constructed with 3-parameter curve fitting using Prism 8.0.
For orientation: Cyclic AMP is a second messenger, typically raised through Gs and lowered through Gi signalling.

In another data set the target is T2, human GIPR (Homo sapiens, UniProt P48546).
T2 construct: host or cells: PathHunter CHO-K1-βarr2-EA
T2 sequence (P48546 22-466): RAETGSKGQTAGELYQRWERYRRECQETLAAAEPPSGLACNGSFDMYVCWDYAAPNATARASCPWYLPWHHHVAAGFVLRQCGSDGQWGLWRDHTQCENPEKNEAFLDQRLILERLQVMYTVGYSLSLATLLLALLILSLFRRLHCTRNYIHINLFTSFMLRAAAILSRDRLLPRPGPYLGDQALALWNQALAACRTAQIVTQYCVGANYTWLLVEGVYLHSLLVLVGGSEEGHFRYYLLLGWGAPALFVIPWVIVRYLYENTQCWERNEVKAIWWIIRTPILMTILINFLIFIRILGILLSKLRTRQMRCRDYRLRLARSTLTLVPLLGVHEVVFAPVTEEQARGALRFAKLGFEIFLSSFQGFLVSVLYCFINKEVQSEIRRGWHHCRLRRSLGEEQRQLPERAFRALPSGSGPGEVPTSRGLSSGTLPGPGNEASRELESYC
Briefly: cAMP production (HTRF) in PathHunter CHO-K1 cells expressing GIPR. Format: cell-based. The following applies: 30 min, mean ± SEM, n = 6; for EC50: 37 °C, serum-free medium, no phosphodiesterase inhibitors, read-out: GIPR CAMP (CHO–K1) pEC50 (converted); for Emax: CHO-K1, normalised to globally fitted maximum response. How it is done:
as §1, §2

In data set [2] the test system is primary mouse hepatocytes. Briefly: cAMP accumulation in primary mouse hepatocytes. It is filed as cell-based. Conditions: expressed relative to 10 μM forskolin response, mean ± SEM, n = 4; for cAMP 10 min (primary hepatocytes) Emax: 100 μM IBMX; for cAMP 16 h (primary hepatocytes) Emax: 100 μM IBMX for final 10 min. How it is done: Hepatocytes from adult male C57Bl/6J mice were isolated using collagenase perfusion. After filtering and washing, the cells were used to directly assay cAMP responses as described in the next section.
as §2

Data set [3] can be described thus: Pharmacokinetic study in rats (SC with ZnCl2, plasma radioimmunoassay). Conditions: 4 mg/kg SC with zinc, up to 72 h. Format: in vivo, rat. Here is the method:
The mice were administered 0.5 mg/kg of peptide via IP injection. Four h after injection, blood was acquired by venesection into lithium heparin-coated microvette tubes (Sarstedt, Germany). In a separate study, male Sprague Dawley rats (average weight 250 g, obtained from Charles River) were administered 4 mg/kg of peptide SC mixed in aqueous ZnCl2 solution to a molar ratio of 0.7:1 (peptide:ZnCl2), and blood was collected by venesection at several time points up to 72 h. Plasma was separated by centrifugation at 10,000 g for 8 min at 4 °C. Plasma concentrations were assessed by radioimmunoassay using an in-house assay as previously described using standard curves generated from each SRB103 peptide to ensure that equivalent recovery was obtained.

A further data set has as its target T3, recombinant DPP-4 (Homo sapiens, UniProt P27487).
T3 construct: purchased R&D Systems
Briefly: DPP-4 peptide degradation assay. It is filed as in vitro ADME. Conditions: 10 nmol peptide in 750 μl 100 mM Tris–HCl pH 8, 10 mU recombinant DPP-4, 37 °C, 1 or 24 h, intact peptide by RP-HPLC (C18), UV 214 nm, vs no-enzyme control, n = 3. Here is the method:
Then, 10 mU of recombinant DPP-4 (R&D Systems) or no enzyme as a control for non-enzymatic degradation over the same time period was added to the reconstituted peptide. Reactions were incubated at 37 °C and 120 μl samples were collected from the reaction vessel at the indicated time points. Then, 5 μl of 10% trifluoroacetic acid (TFA) was added to each sample to terminate enzyme activity. The samples were analysed by reverse-phase high-performance liquid chromatography (HPLC) with a linear acetonitrile/water gradient acidified with 0.1% TFA on Phenomenex Aeris Peptide 3.6 μm XB-C18 columns (150 × 4.6 mm). The eluted peptides were detected at 214 nm. Peptide degradation was calculated by comparing the area under the peak of the original compound with and without enzyme.

The target in data set [4] is T1, GCGR. The data set can be described thus: NanoBiT mini-Gs recruitment to GCGR-SmBiT in HEK293T cells. It is filed as cell-based. Set-up: expressed in transfected cells; host or cells: HEK293T. The following applies: SRB103 pair, mean ± SEM, n = 6; for Emax: HEK-293T, normalised to full agonist response, read-out: GCGR mini-Gs (HEK293T) Emax; for EC50: 3-parameter fit, read-out: GCGR mini-Gs (HEK293T) pEC50 (converted).

Data set [5] concerns the target T1, GCGR. Briefly: cAMP production (HTRF) in PathHunter CHO-K1 cells expressing GCGR. Format: cell-based. Set-up: expressed in transfected cells. Conditions: 30 min, mean ± SEM, n = 6; for EC50: 37 °C, serum-free medium, no phosphodiesterase inhibitors, read-out: GCGR CAMP (CHO–K1) pEC50 (converted); for Emax: CHO-K1, normalised to globally fitted maximum response. Here is the method: as §1, §2

Setting [6] is: 16 h, read-out: Huh7-GCGR cAMP,16 h Emax.
Where [7] appears, read: 16 h, read-out: Huh7-GCGR cAMP,16 h pEC50 (converted).
[8] abbreviates: Huh7-GCGR cAMP, 10 min pEC50, 10 min, no phosphodiesterase inhibitors.
[9] abbreviates: read-out: Huh7-GCGR cAMP, 10 min Emax, 10 min.

T1 sequence (P47871 26-477): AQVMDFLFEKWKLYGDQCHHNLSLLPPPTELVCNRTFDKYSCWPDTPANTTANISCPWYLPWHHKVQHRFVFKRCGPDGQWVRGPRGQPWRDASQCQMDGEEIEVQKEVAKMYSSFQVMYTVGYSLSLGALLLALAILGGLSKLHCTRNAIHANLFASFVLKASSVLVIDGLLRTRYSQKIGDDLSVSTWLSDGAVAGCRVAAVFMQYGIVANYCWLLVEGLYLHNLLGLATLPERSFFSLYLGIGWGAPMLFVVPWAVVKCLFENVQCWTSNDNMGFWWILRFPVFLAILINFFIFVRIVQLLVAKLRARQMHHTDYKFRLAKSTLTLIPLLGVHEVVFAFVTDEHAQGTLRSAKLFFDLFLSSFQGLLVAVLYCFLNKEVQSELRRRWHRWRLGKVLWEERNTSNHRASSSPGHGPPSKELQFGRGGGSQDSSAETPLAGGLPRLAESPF
T3 sequence (P27487 whole entry, species assumed): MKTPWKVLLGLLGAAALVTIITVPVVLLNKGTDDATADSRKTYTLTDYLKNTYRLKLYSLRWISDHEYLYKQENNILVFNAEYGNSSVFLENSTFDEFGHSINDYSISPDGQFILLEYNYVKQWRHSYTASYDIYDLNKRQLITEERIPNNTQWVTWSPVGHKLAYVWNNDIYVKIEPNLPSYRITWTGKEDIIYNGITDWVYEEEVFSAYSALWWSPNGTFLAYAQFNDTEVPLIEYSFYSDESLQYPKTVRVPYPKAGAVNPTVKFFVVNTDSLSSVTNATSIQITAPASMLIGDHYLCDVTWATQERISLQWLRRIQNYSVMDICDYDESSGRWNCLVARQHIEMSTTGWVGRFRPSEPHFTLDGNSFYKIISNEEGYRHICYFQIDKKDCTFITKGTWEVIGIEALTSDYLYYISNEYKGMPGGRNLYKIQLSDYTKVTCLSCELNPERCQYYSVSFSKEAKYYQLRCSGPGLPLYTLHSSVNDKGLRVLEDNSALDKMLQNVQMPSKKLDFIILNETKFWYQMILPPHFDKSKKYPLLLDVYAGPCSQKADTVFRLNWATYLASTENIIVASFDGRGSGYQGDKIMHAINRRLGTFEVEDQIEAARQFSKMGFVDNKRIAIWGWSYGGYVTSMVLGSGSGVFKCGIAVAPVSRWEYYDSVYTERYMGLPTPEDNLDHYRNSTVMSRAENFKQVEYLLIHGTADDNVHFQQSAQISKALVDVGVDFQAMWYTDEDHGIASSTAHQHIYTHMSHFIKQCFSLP

One may read the Emax as the greatest response seen or fitted, relative to the assay's reference. Turning to `CC[C@H](C)[C@H](NC(=O)[C@H](Cc1ccccc1)NC(=O)[C@H](CCC(=O)O)NC(=O)[C@H](CCC(N)=O)NC(=O)[C@H](C)NC(=O)[C@H](CCCNC(=N)N)NC(=O)[C@H](CCCCN)NC(=O)[C@H](C)NC(=O)[C@H](CC(=O)O)NC(=O)[C@H](CC(C)C)NC(=O)[C@H](Cc1ccc(O)cc1)NC(=O)[C@H](CCCCN)NC(=O)[C@H](CO)NC(=O)[C@H](Cc1ccc(O)cc1)NC(=O)[C@H](CC(=O)O)NC(=O)[C@H](CO)NC(=O)[C@@H](NC(=O)[C@H](Cc1ccccc1)NC(=O)[C@@H](NC(=O)CNC(=O)[C@H](Cc1c[nH]cn1)NC(=O)C(C)(C)NC(=O)[C@@H](N)Cc1c[nH]cn1)[C@@H](C)O)[C@@H](C)O)C(=O)N[C@@H](CCC(=O)O)C(=O)N[C@@H](Cc1c[nH]c2ccccc12)C(=O)N[C@@H](CC(C)C)C(=O)N[C@@H](CC(C)C)C(=O)N[C@@H](C)C(=O)NCC(=O)N[C@@H](Cc1c[nH]cn1)C(=O)N[C@@H](Cc1c[nH]cn1)C(=O)N[C@@H](Cc1c[nH]cn1)C(=O)N[C@@H](Cc1c[nH]cn1)C(=O)N[C@@H](Cc1c[nH]cn1)C(=O)N1CCC[C@H]1C(=O)N[C@@H](CO)C(=O)N[C@@H](Cc1c[nH]c2ccccc12)C(=O)O` [SRB103H] (H-H[Aib]HGTFTSDYSKYLDAKRAQEFIEWLLAGHHHHHPSW-OH), the maximal response (Emax) on GCGR [1] (setting [6]) came out at 173 ± 11%; at GCGR [1] (setting [9]) it was 27 ± 4%; at human GIPR it was 101 ± 5%; on GCGR [4], 100%; on GCGR [5], 107 ± 5%. The EC50 on GCGR [1] (setting [7]) was 0.251 nM; at GCGR [1] (setting [8]), 0.0316 nM; on human GIPR it was 25.1 nM; on GCGR [4], 7.94 nM; on GCGR [5], 0.251 nM. For the same molecule, the “cAMP 10 min (primary hepatocytes) Emax” value in data set [2] is recorded as 170 ± 7. The “cAMP 16 h (primary hepatocytes) Emax” value in data set [2] is recorded as 206 ± 7. For the same molecule, the “Pharmacokinetics by serial plasma sampling” value in data set [3] is “no obvious difference in pharmacokinetics”. Moreover, at recombinant DPP-4, the “Resistance to DPP-4-mediated degradation” value was “highly resistant to DPP-4-mediated degradation”.
For `CC[C@H](C)[C@H](NC(=O)[C@H](Cc1ccccc1)NC(=O)[C@H](CCC(=O)O)NC(=O)[C@H](CCC(N)=O)NC(=O)[C@H](C)NC(=O)[C@H](CCCNC(=N)N)NC(=O)[C@H](CCCCN)NC(=O)[C@H](C)NC(=O)[C@H](CC(=O)O)NC(=O)[C@H](CC(C)C)NC(=O)[C@H](Cc1ccc(O)cc1)NC(=O)[C@H](CCCCN)NC(=O)[C@H](CO)NC(=O)[C@H](Cc1ccc(O)cc1)NC(=O)[C@H](CC(=O)O)NC(=O)[C@H](CO)NC(=O)[C@@H](NC(=O)[C@H](Cc1ccccc1)NC(=O)[C@@H](NC(=O)CNC(=O)[C@H](CCC(N)=O)NC(=O)C(C)(C)NC(=O)[C@@H](N)Cc1c[nH]cn1)[C@@H](C)O)[C@@H](C)O)C(=O)N[C@@H](CCC(=O)O)C(=O)N[C@@H](Cc1c[nH]c2ccccc12)C(=O)N[C@@H](CC(C)C)C(=O)N[C@@H](CC(C)C)C(=O)N[C@@H](C)C(=O)NCC(=O)N[C@@H](Cc1c[nH]cn1)C(=O)N[C@@H](Cc1c[nH]cn1)C(=O)N[C@@H](Cc1c[nH]cn1)C(=O)N[C@@H](Cc1c[nH]cn1)C(=O)N[C@@H](Cc1c[nH]cn1)C(=O)N1CCC[C@H]1C(=O)N[C@@H](CO)C(=O)N[C@@H](Cc1c[nH]c2ccccc12)C(=O)O` [SRB103Q] (H-H[Aib]QGTFTSDYSKYLDAKRAQEFIEWLLAGHHHHHPSW-OH), the maximal effect (Emax) at GCGR [1] (setting [6]) worked out at 284 ± 38%; on GCGR [1] (setting [9]), 27 ± 4%; at human GIPR, 92 ± 9%; at GCGR [4], 83 ± 1%; at GCGR [5] it was 103 ± 4%. Besides, the EC50 was 0.2 nM at GCGR [1] (setting [7]); 0.0158 nM on GCGR [1] (setting [8]); 100 nM on human GIPR; 20 nM at GCGR [4]; 0.398 nM on GCGR [5]. The “cAMP 10 min (primary hepatocytes) Emax” value in data set [2] is 175 ± 12. Moreover, the “cAMP 16 h (primary hepatocytes) Emax” value in data set [2] amounted to 200 ± 6. Also, in data set [3], the “Pharmacokinetics by serial plasma sampling” value is reported as “no obvious difference in pharmacokinetics”. Also, on recombinant DPP-4, the “Resistance to DPP-4-mediated degradation” value is listed as “highly resistant to DPP-4-mediated degradation”.
